From article PMC9574886 (Bioorganic & medicinal chemistry, 2022)
Counter-ions that a name gives are not always drawn.

Legend:
[1] = target: human nNOS (Homo sapiens, UniProt P29475); assay: NO-hemoglobin; type: biochemical; details: for drop in potency with hnNOS relative to 12: compared with 12
[2] = target: purified rat nNOS (Rattus norvegicus, UniProt P29476); assay: NO-hemoglobin; type: biochemical; details: for drop in potency with rnNOS relative to 12: compared with 12
[3] = PAMPA-BBB parallel artificial membrane permeability assay; type: in vitro ADME; details: 17 h, 200 μM, triplicate, in-house conditions
[4] = target: human eNOS (Homo sapiens, UniProt P29474); assay: NO-hemoglobin; type: biochemical; details: hn/he compared to lead 9

| drop in potency with hnNOS relative to 12 [1] | Determined Pe [3] | SMILES | other results |
| --- | --- | --- | --- |
| ~73 fold |  | Cc1cc(N)nc(C#CCN2CCN(C)CC2)c1 [Compound 13, 4-methyl-6-(3-(4-methylpiperazin-1-yl)prop-1-yn-1-yl)pyridin-2-amine dihydrochloride] |  |
|  |  | CNCC#Cc1cc(C)cc(N)n1 [Compound 10, 4-methyl-6-(3-(methylamino)prop-1-yn-1-yl)pyridin-2-amine dihydrochloride] | drop in potency with rnNOS relative to 12 [2]: 3 fold |
|  | 17.3 10^−6 cm s^−1 | Cc1cc(N)nc(CCCN2CCC(F)(F)CC2)c1 [Compound 20, 6-(3-(4,4-difluoropiperidin-1-yl)propyl)-4-methylpyridin-2-amine dihydrochloride] |  |
| ~2 fold |  | Cc1cc(N)nc(CCCCN(C)C)c1 [Compound 16, 6-(4-(dimethylamino)butyl)-4-methylpyridin-2-amine dihydrochloride] |  |
| ~49 fold | 21.1 10^−6 cm s^−1 | Cc1cc(N)nc(C#CCN2CCC(F)(F)CC2)c1 [Compound 19, 6-(3-(4,4-difluoropiperidin-1-yl)prop-1-yn-1-yl)-4-methylpyridin-2-amine] | drop in potency with rnNOS relative to 12 [2]: about 61 fold |
|  | 2.0 10^−6 cm s^−1 | Cc1cc(N)nc(CCCN(C)C)c1 [Compound 12, 6-(3-(dimethylamino)propyl)-4-methylpyridin-2-amine dihydrochloride] | drop in heNOS selectivity as compared to lead 9 [4]: 8 fold |
| ~17 fold |  | Cc1cc(N)nc(C#CCN2CC(F)(F)C2)c1 [Compound 17, 6-(3-(3,3-difluoroazetidin-1-yl)prop-1-yn-1-yl)-4-methylpyridin-2-amine dihydrochloride] | better affinity than 19 with hnNOS ([1]; compared with 19): 3 fold; better affinity than 19 with rnNOS ([2]; compared with 19): 3 fold |

| SMILES | drop in potency with hnNOS relative to 12 [1] | Determined Pe [3] | other results |
| --- | --- | --- | --- |
| Cc1cc(N)nc(C#CCCN(C)C)c1 [Compound 15, 6-(4-(dimethylamino)but-1-yn-1-yl)-4-methylpyridin-2-amine dihydrochloride] | 11 fold |  |  |
